Data reported in patent publication US8088805B2, “Inhibitors of histone deacetylase” (MethylGene Inc., priority 2004, dated 2012).

Assays:
[1] = test system: SW48 colon cancer cells; test: Human tumor xenograft in vivo, SW48; conditions: Mus musculus, 30 mg/kg ip, mice, read-out: % Inhibition (relative to vehicle control) SW48
Method: (§1) Eight to ten week old female BCD1 mice (Taconic Labs, Great Barrington, N.Y.) were injected subcutaneously in the flank area with 2×10^6 preconditioned HCT116 human colorectal carcinoma cells, SW48 colon cancer cells, and A549 lung cancer cells. Preconditioning of these cells was done by a minimum of three consecutive tumor transplantations in the same strain of nude mice. Subsequently, tumor fragments of approximately 30 mgs were excised and implanted subcutaneously in mice, in the left flank area, under Forene anesthesia (Abbott Labs, Geneva, Switzerland). When the tumors reached a mean volume of 100 mm^3, the mice were treated intraperitoneally by daily injection, with a solution of the histone deacetylase inhibitor in DMSO, at a starting dose of 10 mg/kg. The optimal dose of the HDAC inhibitor was established by dose response experiments according to standard protocols. Tumor volume was calculated every second day post infusion according to standard methods (e.g., Meyer et al., Int. J. Cancer 43: 851-856 (1989)).

[2] = test system: HCT116 human colorectal carcinoma cells; test: Human tumor xenograft in vivo, HCT116; conditions: Mus musculus, HCT-116; 30 mg/kg ip, mice; read-out: % Inhibition (relative to vehicle control) HCT116
Method: as §1

[3] = molecular target: Human HDAC-1 (Homo sapiens, UniProt Q13547); test: HDAC-1 enzymatic inhibition, Assay 2 (Boc-Lys(Ac)-AMC, Fluor-de-Lys); assay type: biochemical; conditions: Assay 2: Boc-Lys(Ac)-AMC substrate, fluorescence; read-out: HDAC1 IC50
Method: Assay 2. The following protocol was also used to assay the compounds of the invention. In the assay, the buffer used was 25 mM HEPES, pH 8.0, 137 mM NaCl, 2.7 mM KCl, 1 mM MgCl2 and the substrate was Boc-Lys(Ac)-AMC in a 50 mM stock solution in DMSO. The enzyme stock solution was 4.08 μg/mL in buffer. The compounds were pre-incubated (2 μl in DMSO diluted to 13 μl in buffer for transfer to assay plate) with enzyme (20 μl of 4.08 μg/ml) for 10 minutes at room temperature (35 μl pre-incubation volume). The mixture was pre-incubated for 5 minutes at room temperature. The reaction was started by bringing the temperature to 37° C. and adding […] substrate. Total reaction volume was 50 μl. The reaction was stopped after 20 minutes by addition of 50 μl developer, prepared as directed by Biomol (Fluor-de-Lys developer, Cat. # KI-105). A plate was incubated in the dark for 10 minutes at room temperature before reading (λEx=360 nm, λEm=470 nm, Cutoff filter at 435 nm).
Assay 1 was used to measure HDAC activity of compounds 10c, 13e, 16d, 26b, 44, 47, 61a, 61b, 63, 134, 138, and 308. Assay 2 was used to measure HDAC activity of compounds 361, 366, 367, 368, 369, 370, 371, 372, 373, 374, 375, 376, 377, and 378. In Table 14, “a” indicates activity of ≦0.1 μM, “b” indicates activity of ≦1 μM, “c” indicates activity of ≦5 μM, and “d” indicates activity of >5 μm. For the H4-Ac T24 EC vs. MS-275 assay in Table 14, “u” indicates less than 1, “v” indicates 1, and “w” indicates greater than 1. For the H3 Ac t24 assay in Table 14, “x” indicates activity of ≦1 μM, “y” indicates activity of ≦10 μM, and “z” indicates activity of ≦20 μM.

[4] = test system: HCT116 cells; test: MTT assay; assay type: cell-based; conditions: Homo sapiens, HCT-116, 72 hours
Method: HCT116 cells (2000/well) were plated into 96-well tissue culture plates one day before compound treatment. Compounds at various concentrations were added to the cells. The cells were incubated for 72 hours at 37° C. in 5% CO2 incubator. MTT (3-[4,5-dimethylthiazol-2-yl]-2,5diphenyl tetrazolium bromide, Sigma) was added at a final concentration of 0.5 mg/ml and incubated with the cells for 4 hours before one volume of solubilization buffer (50% N,N-dimethylformamide, 20% SDS, pH 4.7) was added onto the cultured cells. After overnight incubation, solubilized dye was quantified by colorimetric reading at 570 nM using a reference at 630 nM using an MR700 plate reader (Dynatech Laboratories Inc.). OD values were converted to cell numbers according to a standard growth curve of the relevant cell line. The concentration which reduces cell numbers to 50% of that of solvent treated cells is determined as MTT IC50. In Table 14, “a” indicates activity of ≦0.1 μM, “b” indicates activity of ≦1 μM, and “c” indicates activity of ≦5 μM.

[5] = test system: Histone H3 acetylation in T24 human bladder cancer cells; test: Histone H3 acetylation assay; assay type: cell-based; conditions: T-24, 16 h, concentration giving 50% of Emax of MS-275, read-out: H3 Ac t24
Method: T24 human bladder cancer cells growing in culture are incubated with HDAC inhibitors for 16 h. Cell viability is determined by adding 10 μl Alamar Blue (BioSource, DAL1100). Cells are washed once with PBS and fixed with methanol precooled to −20° C. for 10 min. The cells are then washed twice in PBS. The fixed cells are blocked with 50 μl of PBS+0.1% Triton X-100. Cells are probed with rabbit-anti-acetyl-H3 (Upstate #06-599) as the primary antibody and then with goat-anti-rabbit-HRP (Sigma #A-0545) as the secondary antibody. Fluorescence is read by fluorometer at Ex:550, Em:610, Cutoff:590 (Auto PMT, 15 reads/well) after addition of Amplex-Red. Fluorescence signal is normalized against cell viability derived from Alamar Blue. Maximum acetylation signal of MS-275 (fluorescence unit) is measured as Emax. The concentration of compound which gives 50% of Emax is EC50. In Table 14, “x” indicates activity of ≦1 μM, “y” indicates activity of ≦10 μM, and “z” indicates activity of ≦20 μM.

[6] = test system: A549 lung cancer cells; test: Human tumor xenograft in vivo, A549; conditions: 30 mg/kg ip, mice
Method: as §1

Chain of Human HDAC-1 (Q13547 whole entry): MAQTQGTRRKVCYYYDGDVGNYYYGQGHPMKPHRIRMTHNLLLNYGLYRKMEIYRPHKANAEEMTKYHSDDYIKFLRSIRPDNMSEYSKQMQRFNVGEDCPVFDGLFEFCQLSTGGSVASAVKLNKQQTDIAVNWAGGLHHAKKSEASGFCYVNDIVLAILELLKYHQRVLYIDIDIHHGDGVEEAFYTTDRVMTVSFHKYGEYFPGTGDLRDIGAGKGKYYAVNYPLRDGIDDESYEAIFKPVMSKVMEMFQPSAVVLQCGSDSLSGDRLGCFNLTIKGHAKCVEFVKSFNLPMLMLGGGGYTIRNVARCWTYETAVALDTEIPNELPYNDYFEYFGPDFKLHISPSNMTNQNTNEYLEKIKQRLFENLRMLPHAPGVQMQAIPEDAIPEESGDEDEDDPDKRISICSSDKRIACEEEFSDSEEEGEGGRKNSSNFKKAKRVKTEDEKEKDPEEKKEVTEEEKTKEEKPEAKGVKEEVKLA

IC50 [3] [nM]	IC50 [4] [nM]	EC50 [5] [µM]	Structure (SMILES)	inhibition in vivo at 30 mg/kg [1] [%]	inhibition in vivo at 30 mg/kg [2] [%]	% Inhibition (relative to vehicle control) A549 [6] [%]
–	–	–	CC(=O)Nc1ccc(NCc2ccc(C(=O)Nc3ccccc3N)cc2)cn1 [212f, 4-[(6-Acetylamino-pyridin-3-ylamino)-methyl]-N-(2-amino-phenyl)-benzamide]	32.7	65.7	–
≤ 100	> 5000	≤ 1	Nc1ccccc1NC(=O)c1ccc(N2CC[C@H](Oc3ccc4c(c3)OCO4)C2)cc1 [compound 375, (S)—N-(2-Aminophenyl)-4-(3-(benzo[d][1,3]dioxol-5-yloxy)pyrrolidin-1-yl)benzamide]	–	–	–
–	–	–	Cn1cnc2cc(NCc3ccc(C(=O)Nc4ccccc4N)cc3)ccc21 [compound 252, N-(2-Amino-phenyl)-4-[(1-methyl-1H-benzoimidazol-5-ylamino)-methyl]-benzamide]	25.9	70.6	–
≤ 100	100 to 1000	≤ 10	Nc1ccccc1NC(=O)c1ccc(N2CC[C@H](Nc3cccnc3)C2)cc1 [compound 361, (S)—N-(2-Aminophenyl)-4-(3-(pyridin-3-ylamino)pyrrolidin-1-yl)benzamide]	–	–	–
100 to 1000	100 to 1000	≤ 1	Nc1ccccc1NC(=O)c1ccc(N2CC[C@H](Nc3ccccc3)C2)cc1 [compound 369, (S)—N-(2-Aminophenyl)-4-(3-(phenylamino)pyrrolidin-1-yl)benzamide]	–	–	–
100 to 1000	1000 to 5000	≤ 20	Nc1ccccc1NC(=O)c1ccc(N2CC[C@@H](Nc3cccnc3)C2)cc1 [compound 366, (R)—N-(2-Aminophenyl)-4-(3-(pyridin-3-ylamino)pyrrolidin-1-yl)benzamide]	–	–	–
–	–	–	COc1ccc(NCc2ccc(C(=O)Nc3ccccc3N)cc2)cc1F [212h, N-(2-Amino-phenyl)-4-[(3-fluoro-4-methoxy-phenylamino)-methyl]-benzamide]	44	–	54.4
–	–	–	Nc1ccccc1NC(=O)c1ccc(CNc2nccc(-c3nccs3)n2)cc1 [26c, N-(2-Amino-phenyl)-4-[(4-thiazol-2-yl-pyrimidin-2-ylamino)-methyl]-benzamide]	89.5	88	–
–	–	–	Nc1ccccc1NC(=O)c1ccc(CSc2nc3cc(F)c(F)cc3[nH]2)cc1 [compound 194, N-(2-Amino-phenyl)-4-(5,6-difluoro-1H-benzoimidazol-2-ylsulfanylmethyl)-benzamide]	23.1	54.5	–
100 to 1000	100 to 1000	≤ 10	Nc1ccccc1NC(=O)c1ccc(N2CC[C@H](Sc3ccccn3)C2)cc1 [compound 378, (S)—N-(2-Aminophenyl)-4-(3-(pyridin-2-ylthio)pyrrolidin-1-yl)benzamide]	–	–	–
–	–	–	Nc1ccccc1NC(=O)c1ccc(CNc2nccc(-c3ccc(N4CCOCC4)nc3)n2)cc1 [34a, N-(2-Amino-phenyl)-4-{[4-(6-morpholin-4-yl-pyridin-3-yl)-pyrimidin-2-ylamino]-methyl}-benzamide]	25.5	–	67.1
–	–	–	CCC(=O)Nc1sc(Cc2ccc(C(=O)Nc3ccccc3N)cc2)cc1C(N)=O [compound 296, 5-[4-(2-Amino-phenylcarbamoyl)-benzyl]-2-propionylamino thiophene-3-carboxylic acid amide]	53.4	63.9	–
–	–	–	CN(C)C(=O)c1ccc(-c2ccnc(NCc3ccc(C(=O)Nc4ccccc4N)cc3)n2)cn1 [29a, 5-{2-[4-(2-Amino-phenylcarbamoyl)-benzylamino]-pyrimidin-4-yl}-pyridine-2-carboxylic acid dimethylamide]	70.2	–	31.8
–	–	–	COc1ccc(CCNc2ccnc(NCc3ccc(C(=O)Nc4ccccc4N)cc3)n2)cc1OC [10a, N-(2-Amino-phenyl)-4-({4-[2-(3,4-dimethoxy-phenyl)-ethylamino]-pyrimidin-2-ylamino}-methyl)-benzamide]	23	16.1	–
≤ 100	100 to 1000	≤ 1	COc1cc(O[C@H]2CCN(c3ccc(C(=O)Nc4ccccc4N)cc3)C2)cc(OC)c1OC [compound 374, (S)—N-(2-Aminophenyl)-4-(3-(3,4,5-trimethoxyphenoxy)pyrrolidin-1-yl)benzamide]	–	–	–
100 to 1000	100 to 1000	≤ 10	Nc1ccccc1NC(=O)c1ccc(N2CC[C@H](Oc3cccnc3)C2)cc1 [compound 367, (S)—N-(2-Aminophenyl)-4-(3-(pyridin-3-yloxy)pyrrolidin-1-yl)benzamide]	–	–	–
–	–	–	CN(C)CC(=O)Nc1ccc2nc(SCc3ccc(C(=O)Nc4ccccc4N)cc3)sc2c1 [compound 158, N-(2-Amino-phenyl)-4-[6-(2-dimethylamino-acetylamino)-benzothiazol-2-ylsulfanylmethyl]-benzamide]	43.2	–	42.6
–	–	–	COCOC(C)(C)c1ccc(-c2ccnc(NCc3ccc(C(=O)Nc4ccccc4N)cc3)n2)cn1 [58b, N-(2-Amino-phenyl)-4-({4-[6-(1-methoxymethoxy-1-methyl-ethyl)-pyridin-3-yl]-pyrimidin-2-ylamino}-methyl)-benzamide]	34.6	29.4	–
